These results are taken from patent US20040038201A1, “Diagnostic and therapeutic applications for biomarkers of infection” (Whitehead Institute for Biomedical Research, priority 2002, published 2004).

Assay [1] relates to human macrophages. In kind it is cell-based. Particulars: 24-hour time course; LPS 1 μg/mL, LTA 10 μg/mL, MDP 100 μg/mL, hsps 10 μg/mL.
Assay [2] deals with human macrophages. Description: Differential (Gram-negative/TLR4-specific) macrophage gene expression after bacterial components or cytokines, HuFL GeneChips. The class given is cell-based. The settings on record: for expression pattern of the 101 genes differentially regulated by Gram-negative versus Gram-positive bacteria: LPS 1 μg/mL, LTA 10 μg/mL, MDP 100 μg/mL, fMLP 100 nM; for induction of the TLR4-induced core cluster of genes by cytokines: IFNs at 1000 units/mL.

Assay [3] has as its system human macrophages. Description: I-TAC ELISA of macrophage supernatants. The settings on record: for I-TAC production by macrophages in response to bacterial components: supernatants after 24 hours, LPS 1 μg/mL, MDP 100 μg/mL; for I-TAC production by macrophages in response to IFNs: 100 units/mL IFN. The class given is cell-based. (In an ELISA, binding on a coated surface is turned into a signal by an enzyme label.)

Assay [4] concerns human macrophages. Description: IL-12 p40 ELISA of macrophage supernatants. The settings on record: LPS 1 μg/mL, MDP 100 μg/mL. In kind it is cell-based.
The subject of assay [5] is human macrophages. Description: IL-12 p70 ELISA of macrophage supernatants. The class given is cell-based. The settings on record: LPS 1 μg/mL, MDP 100 μg/mL.
The next assay relates to mycobacterial infection. Particulars: supplemental IL-12; cited from earlier work.
The test system of assay [6] is M. abscessus infection, M. tuberculosis infection. Particulars: exogenous IL-12 therapy; cited from earlier work.
The target of another assay is T1, TLR-4 (Homo sapiens, UniProt O00206+Q9Y6Y9).
T1 construct: endogenous in cells; host or cells: human monocyte-derived macrophages (primary)
Description: TLR-4 antagonist (RSLA) pretreatment, TNF-alpha ELISA of stimulated macrophages. In kind it is cell-based. The settings on record: 1 μg/mL RSLA, 30 minutes pretreatment; 10 μg/mL hsp70. As to the method: FIG. 9 is a graphical representation showing a specific TLR-4 antagonist inhibits production of TNF-alpha by hsp70. Monocytes were plated at […] in 96-well Primaria plates and matured to macrophages as described. Cells were washed with Hank's Balanced Salt Solution incubated overnight in DMEM, 1% human serum, and pretreated for 30 minutes at 37° C. with 1 μg/mL Rhodobacter sphaeroides lipid A (RSLA). RSLA is a specific antagonist of TLR-4. Cells were then stimulated with 0.1 MOI E. coli sd-4, 1 μg/mL LPS, or 10 μg/mL hsp70 to duplicate, and culture media was collected at 0, 2, 6, and 12 hours. ELISAs were performed using manufacturer's protocols.

The test system of another assay is macrophages. The class given is cell-based, human.
The test system of a further assay is STAT1. Briefly: Phosphorylation of macrophage STAT1. The class given is cell-based, human.
In the next assay the test system is dendritic cells. Description: I-TAC production by dendritic cells (ELISA). The settings on record: 24 hours after exposure to LPS or lipoteichoic acid.

T1 sequence (O00206 24-839): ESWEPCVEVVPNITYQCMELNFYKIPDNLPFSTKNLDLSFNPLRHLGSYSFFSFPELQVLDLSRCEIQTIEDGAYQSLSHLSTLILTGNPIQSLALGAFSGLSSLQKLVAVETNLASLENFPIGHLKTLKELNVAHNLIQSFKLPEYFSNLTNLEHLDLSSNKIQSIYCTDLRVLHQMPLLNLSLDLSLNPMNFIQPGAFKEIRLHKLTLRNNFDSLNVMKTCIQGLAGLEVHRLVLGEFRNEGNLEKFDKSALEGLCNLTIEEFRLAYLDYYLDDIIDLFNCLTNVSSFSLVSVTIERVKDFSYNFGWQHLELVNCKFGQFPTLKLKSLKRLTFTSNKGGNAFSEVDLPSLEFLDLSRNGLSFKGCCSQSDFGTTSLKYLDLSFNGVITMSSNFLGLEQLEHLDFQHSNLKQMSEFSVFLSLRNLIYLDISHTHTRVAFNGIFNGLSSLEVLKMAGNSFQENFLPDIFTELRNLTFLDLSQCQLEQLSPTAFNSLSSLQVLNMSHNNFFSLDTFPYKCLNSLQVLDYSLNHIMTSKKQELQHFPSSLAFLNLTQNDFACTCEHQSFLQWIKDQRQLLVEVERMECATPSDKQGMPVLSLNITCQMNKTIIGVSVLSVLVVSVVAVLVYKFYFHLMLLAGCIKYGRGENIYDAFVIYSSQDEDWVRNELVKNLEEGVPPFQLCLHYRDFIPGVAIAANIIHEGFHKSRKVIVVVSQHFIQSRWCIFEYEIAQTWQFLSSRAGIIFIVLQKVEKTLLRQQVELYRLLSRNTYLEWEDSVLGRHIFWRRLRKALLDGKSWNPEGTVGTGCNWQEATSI
T1 sequence (Q9Y6Y9 17-160 limits assumed): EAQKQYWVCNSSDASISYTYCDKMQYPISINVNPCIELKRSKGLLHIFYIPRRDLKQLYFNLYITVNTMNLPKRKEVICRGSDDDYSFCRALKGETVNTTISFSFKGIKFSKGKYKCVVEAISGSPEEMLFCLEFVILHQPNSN

On to `CC(=O)N[C@H]1C(O)O[C@H](CO)[C@@H](O)[C@@H]1O[C@H](C)C(=O)N[C@@H](C)C(=O)N[C@H](CCC(=O)O)C(N)=O` (mixture of isomers) [MDP, muramyl dipeptide], for which the “induction of the macrophage activation program (gene expression changes)” value (“induction … (gene expression changes)” for short) in the assay on human macrophages [1] was “induced the majority of the activation program”. Also, in the assay on human macrophages [2], the “induction of the cluster of nine genes specific to Gram-positive bacteria” value is on record as “insufficient to induce this small cluster of genes” and the “expression pattern of the 101 genes differentially regulated by Gram-negative versus Gram-positive bacteria” value is on record as “induced gene expression changes similar to the Gram-positive organisms”. In addition, the “I-TAC production by macrophages in response to bacterial components” value (“I-TAC production … to bacterial components” below) with human macrophages [3] was “not”. In addition, the “IL-12 p40 secretion by macrophages” value in the assay on human macrophages [4] is reported as “elicited”. In addition, in the assay on human macrophages [5], the “IL-12 p70 production by macrophages in response to bacterial components” value is listed as “did not”.

For IFN-α, the “induction of the TLR4-induced core cluster of genes by cytokines” value (“induction … by cytokines” below) in the assay with human macrophages [2] is reported as “sufficient to induce the expression of the TLR4-induced core cluster of genes”. The “I-TAC production by macrophages in response to IFNs” value with human macrophages [3] is listed as “sufficient to induce I-TAC production”.

On to IFN-γ: IFN-γ from R&D Systems, for which, in the assay with human macrophages [2], the “induction … by cytokines” value is reported as “sufficient to induce the expression of the TLR4-induced core cluster of genes”. Moreover, the “I-TAC production by macrophages in response to IFNs” value in the assay with human macrophages [3] is “sufficient to induce I-TAC production”.

Regarding “IL-12: cytokine incubated with macrophages; exogenous IL-12 therapy in cited studies”, the “induction … by cytokines” value in the assay on human macrophages [2] is listed as “failed to induce comparable gene expression changes”. Besides, in the assay on mycobacterial infection, the “clearance of mycobacterial infection in normal mice” value was “enhances the ability of normal mice to clear a mycobacterial infection”. The “clinical outcome in patients with infections refractory to antibiotics and supplemental IFN-γ” value in [6] was “rescued two patients”.

For the molecule Rhodobacter sphaeroides lipid A [RSLA], the “production of TNF-alpha by hsp70-stimulated macrophages after antagonist pretreatment” value on TLR-4 is recorded as “inhibits”.

“formyl-methionine-leucine-phenylalanine [formyl-MetLeuPhe]”: in the assay with human macrophages [2], the “expression pattern of the 101 genes differentially regulated by Gram-negative versus Gram-positive bacteria” value is on record as “failed to induce expression changes that were characteristic of either class of bacteria”.

Consider “hsp70: Recombinant mycobacterial heat shock protein from StressGen”, for which the “induction … (gene expression changes)” value with human macrophages [1] was “induced the majority of the activation program”. Also, the “cytokine elicited relative to the endotoxin-equivalent amount of LPS” value in the assay on macrophages (0.06 Eu/mL = 13 pg/mL LPS, 10 μg/mL hsp 70) is 3-6 times.

As for lipopolysaccharide [LPS], in the assay on human macrophages [1], the “induction … (gene expression changes)” value is on record as “induced the majority of the activation program”. Moreover, in the assay on human macrophages [2], the “gene expression changes compared with whole Gram-negative bacteria” value is “less robust in magnitude and duration”; the “expression pattern of the 101 genes differentially regulated by Gram-negative versus Gram-positive bacteria” value was “recapitulated the expression pattern of the 101 genes”. The “maximum level of I-TAC secretion, macrophages” value in the assay with human macrophages [3] (24 hours after exposure to LPS or lipoteichoic acid) stood at 2.8 ng/mL. Also, in the assay with human macrophages [3], the “I-TAC production … to bacterial components” value is on record as “induced”. The “IL-12 p40 secretion by macrophages” value in the assay with human macrophages [4] is “elicited”. In addition, the “IL-12 p70 production by macrophages in response to bacterial components” value in the assay with human macrophages [5] is recorded as “stimulated p70 production”. Moreover, in the assay with macrophages (LPS titration), the “endotoxin levels that did not stimulate production of either cytokine (TNF-alpha, IL-12 p40)” value is “lower than 1.4 Eu/mL” and the “endotoxin required to elicit IL-12 p40 relative to TNF-alpha” value is on record as “Roughly 100 fold”. The “phosphorylation of macrophage STAT1” value in the assay with STAT1 was “observed”. The “maximum level of I-TAC secretion, dendritic cells” value in the assay with dendritic cells is on record as 59 ng/mL.

Take lipoteichoic acid [LTA]: in the assay with human macrophages [1], the “induction … (gene expression changes)” value is given as “induced the majority of the activation program”. Also, in the assay with human macrophages [2], the “induction of the cluster of nine genes specific to Gram-positive bacteria” value is reported as “insufficient to induce this small cluster of genes” and the “expression pattern of the 101 genes differentially regulated by Gram-negative versus Gram-positive bacteria” value is on record as “induced gene expression changes similar to the Gram-positive organisms”. Moreover, in the assay on human macrophages [3], the “I-TAC production … to bacterial components” value is “not”.

In the case of monophosphoryl lipid A, the “induction … (gene expression changes)” value in the assay with human macrophages [1] was “failed to induce this set of gene expression changes”.

B1: IL-10: cytokine incubated with macrophages (protein, UniProt P22301 19-178, looked up)
Interleukin-10: SPGQGTQSENSCTHFPGNLPNMLRDLRDAFSRVKTFFQMKDQLDNLLLKESLLEDFKGYLGCQALSEMIQFYLEEVMPQAENQDPDIKAHVNSLGENLKTLRLRLRRCHRFLPCENKSKAVEQVKNAFNKLQEKGIYKAMSEFDIFINYIEAYMTMKIRN
Regarding B1, the “induction … by cytokines” value in the assay with human macrophages [2] was “failed to induce comparable gene expression changes”.
